Consider twelve compounds from ChEMBL document CHEMBL1135306, “Synthesis and evaluation of vancomycin and vancomycin aglycon analogues that bear modifications in the residue 3 asparagine” (2002).

Common to all, as to type: functional
The test system of assay [1] is Enterococcus faecium. Nature of the assay: In vitro antibacterial activity against vancomycin resistant Enterococcus faecium.
Assay [2] relates to Enterococcus faecium. Nature of the assay: In vitro antibacterial activity against Enterococcus faecium (ATCC 35667).
Assay [3] has as its system Enterococcus faecalis. The assay is described as follows: In vitro antibacterial activity against vancomycin resistant Enterococcus faecalis (VanB, ATCC 51299).
Assay [4] deals with Enterococcus faecalis. The assay is described as follows: In vitro antibacterial activity against vancomycin resistant Enterococcus faecalis (VanA, BM4166).
Another assay deals with Staphylococcus aureus. Nature of the assay: In vitro antibacterial activity against methicillin sensitive Staphylococcus aureus (ATCC 25923).

Values after ≈ are worked out from the molar mass of the structure shown.

As a reminder, the MIC is the lowest concentration found to suppress growth. For the compound `CN[C@H](CC(C)C)C(=O)N[C@H]1C(=O)N[C@@H](CC(N)=O)C(=O)N[C@H]2C(=O)N[C@H]3C(=O)N[C@H](C(=O)N[C@H](C(=O)O)c4cc(O)cc(O)c4-c4cc3ccc4O)[C@H](O)c3ccc(c(Cl)c3)Oc3cc2cc(c3O)Oc2ccc(cc2Cl)[C@H]1O` [VANCOMYCIN AGLYCON], the MIC in the assay on Enterococcus faecium [1] was found to be 160 µg/mL (≈ 140 µM); in the assay on Enterococcus faecium [2], 2.5 µg/mL (≈ 2.19 µM); against Enterococcus faecalis [3], 80 µg/mL (≈ 69.9 µM); in the assay on Enterococcus faecalis [4], 640 µg/mL (≈ 559 µM); with Staphylococcus aureus it was 0.625 µg/mL (≈ 0.546 µM).

In the case of `CN[C@H](CC(C)C)C(=O)N[C@H]1C(=O)N[C@@H](CC#N)C(=O)N[C@H]2C(=O)N[C@H]3C(=O)N[C@H](C(=O)N[C@H](C(=O)OC)c4cc(OC)cc(OC)c4-c4cc3ccc4OC)[C@H](O)c3ccc(c(Cl)c3)Oc3cc2cc(c3OC)Oc2ccc(cc2Cl)[C@H]1O`, the MIC in the assay with Enterococcus faecium [1] was 40 µg/mL (≈ 33.4 µM); against Enterococcus faecium [2] it was 1.25 µg/mL (≈ 1.05 µM); with Enterococcus faecalis [3] it was 2.5 µg/mL (≈ 2.09 µM); with Enterococcus faecalis [4], 40 µg/mL (≈ 33.4 µM); in the assay with Staphylococcus aureus it was 0.625 µg/mL (≈ 0.523 µM).

As for `CN[C@H](CC(C)C)C(=O)N[C@H]1C(=O)N[C@@H](CC#N)C(=O)N[C@H]2C(=O)N[C@H]3C(=O)N[C@H](C(=O)N[C@H](C(=O)O)c4cc(O)cc(O)c4-c4cc3ccc4O)[C@H](O)c3ccc(c(Cl)c3)Oc3cc2cc(c3O)Oc2ccc(cc2Cl)[C@H]1O`, the minimal inhibitory concentration (MIC) in the assay on Enterococcus faecium [1] was found to be 640 µg/mL (≈ 568 µM); against Enterococcus faecium [2] it was 20 µg/mL (≈ 17.8 µM); in the assay on Enterococcus faecalis [3], 320 µg/mL (≈ 284 µM); against Enterococcus faecalis [4], 640 µg/mL (≈ 568 µM); against Staphylococcus aureus, 10 µg/mL (≈ 8.88 µM).

On to `CN[C@H](CC(C)C)C(=O)N[C@H]1C(=O)N[C@@H](CC(N)=O)C(=O)N[C@H]2C(=O)N[C@H]3C(=O)N[C@H](C(=O)N[C@H](C(=O)OC)c4cc(OC)cc(OC)c4-c4cc3ccc4OC)[C@H](O)c3ccc(c(Cl)c3)Oc3cc2cc(c3OC)Oc2ccc(cc2Cl)[C@H]1O`, for which the minimal inhibitory concentration (MIC) was determined as 40 µg/mL (≈ 32.9 µM) against Enterococcus faecium [1]; 1.25 µg/mL (≈ 1.03 µM) with Enterococcus faecium [2]; 10 µg/mL (≈ 8.24 µM) against Enterococcus faecalis [3]; 40 µg/mL (≈ 32.9 µM) against Enterococcus faecalis [4]; 0.625 µg/mL (≈ 0.515 µM) in the assay on Staphylococcus aureus.

Take `CN[C@H](CC(C)C)C(=O)N[C@H]1C(=O)N[C@@H](CC#N)C(=O)N[C@H]2C(=O)N[C@H]3C(=O)N[C@H](C(=O)N[C@H](C(=O)O)c4cc(O)cc(O)c4-c4cc3ccc4O)[C@H](O)c3ccc(c(Cl)c3)Oc3cc2cc(c3O[C@@H]2O[C@H](CO)[C@@H](O)[C@H](O)[C@H]2O[C@H]2C[C@](C)(N)[C@H](O)[C@H](C)O2)Oc2ccc(cc2Cl)[C@H]1O`: the MIC in the assay with Enterococcus faecium [1] is 320 µg/mL (≈ 224 µM); in the assay with Enterococcus faecium [2] it was 80 µg/mL (≈ 55.9 µM); against Enterococcus faecalis [3], 320 µg/mL (≈ 224 µM); against Enterococcus faecalis [4], 320 µg/mL (≈ 224 µM); against Staphylococcus aureus, 20 µg/mL (≈ 14 µM).

In the case of `CN[C@H](CC(C)C)C(=O)N[C@H]1C(=O)N[C@@H](CC(N)=O)C(=O)N[C@H]2C(=O)N[C@H]3C(=O)N[C@H](C(=O)N[C@H](C(=O)O)c4cc(O)cc(O)c4-c4cc3ccc4O)[C@H](O)c3ccc(c(Cl)c3)Oc3cc2cc(c3O[C@@H]2O[C@H](CO)[C@@H](O)[C@H](O)[C@H]2O[C@H]2C[C@](C)(N)[C@H](O)[C@H](C)O2)Oc2ccc(cc2Cl)[C@H]1O` [VANCOMYCIN], the MIC was found to be 500 µg/mL (≈ 345 µM) with Enterococcus faecium [1]; 2.5 µg/mL (≈ 1.73 µM) in the assay on Enterococcus faecium [2]; 125 µg/mL (≈ 86.3 µM) against Enterococcus faecalis [3]; 2000 µg/mL (≈ 1380 µM) in the assay with Enterococcus faecalis [4]; 1.25 µg/mL (≈ 0.863 µM) in the assay with Staphylococcus aureus.

Regarding `CN[C@H](CC(C)C)C(=O)N[C@H]1C(=O)N[C@@H](CC#N)C(=O)N[C@H]2C(=O)N[C@H]3C(=O)N[C@H](C(=O)N[C@H](C(=O)O)c4cc(OC)cc(OC)c4-c4cc3ccc4OC)[C@H](O)c3ccc(c(Cl)c3)Oc3cc2cc(c3OC)Oc2ccc(cc2Cl)[C@H]1O`, the MIC against Enterococcus faecium [1] stood at 160 µg/mL (≈ 135 µM); in the assay on Enterococcus faecium [2], 2.5 µg/mL (≈ 2.11 µM); with Enterococcus faecalis [3] it was 20 µg/mL (≈ 16.9 µM); in the assay with Enterococcus faecalis [4], 160 µg/mL (≈ 135 µM); against Staphylococcus aureus, 0.31 µg/mL (≈ 0.262 µM).

As to `CN[C@H](CC(C)C)C(=O)N[C@H]1C(=O)N[C@@H](CC#N)C(=O)N[C@H]2C(=O)N[C@H]3C(=O)N[C@H](C(=O)N[C@H](C(=O)OC)c4cc(O)cc(O)c4-c4cc3ccc4O)[C@H](O)c3ccc(c(Cl)c3)Oc3cc2cc(c3O[C@@H]2O[C@H](CO)[C@@H](O)[C@H](O)[C@H]2O[C@H]2C[C@](C)(N)[C@H](O)[C@H](C)O2)Oc2ccc(cc2Cl)[C@H]1O`, the MIC was 320 µg/mL (≈ 221 µM) against Enterococcus faecium [1]; 10 µg/mL (≈ 6.92 µM) in the assay on Enterococcus faecium [2]; 160 µg/mL (≈ 111 µM) with Enterococcus faecalis [3]; 640 µg/mL (≈ 443 µM) in the assay on Enterococcus faecalis [4]; 2.5 µg/mL (≈ 1.73 µM) in the assay with Staphylococcus aureus.

For the compound `CN[C@H](CC(C)C)C(=O)N[C@H]1C(=O)N[C@@H](CC(N)=O)C(=O)N[C@H]2C(=O)N[C@H]3C(=O)N[C@H](C(=O)N[C@H](C(=O)O)c4cc(OC)cc(OC)c4-c4cc3ccc4OC)[C@H](O)c3ccc(c(Cl)c3)Oc3cc2cc(c3OC)Oc2ccc(cc2Cl)[C@H]1O`, the MIC amounted to 40 µg/mL (≈ 33.3 µM) in the assay with Enterococcus faecium [1]; 2.5 µg/mL (≈ 2.08 µM) in the assay with Enterococcus faecium [2]; 20 µg/mL (≈ 16.7 µM) in the assay with Enterococcus faecalis [3]; 40 µg/mL (≈ 33.3 µM) against Enterococcus faecalis [4]; 0.625 µg/mL (≈ 0.521 µM) in the assay on Staphylococcus aureus.

With `CN[C@H](CC(C)C)C(=O)N[C@H]1C(=O)N[C@@H](CC(N)=O)C(=O)N[C@H]2C(=O)N[C@H]3C(=O)N[C@H](C(=O)N[C@H](C(=O)OC)c4cc(O)cc(O)c4-c4cc3ccc4O)[C@H](O)c3ccc(c(Cl)c3)Oc3cc2cc(c3O[C@@H]2O[C@H](CO)[C@@H](O)[C@H](O)[C@H]2O[C@H]2C[C@](C)(N)[C@H](O)[C@H](C)O2)Oc2ccc(cc2Cl)[C@H]1O`, the MIC in the assay with Enterococcus faecium [1] is 640 µg/mL (≈ 437 µM); with Enterococcus faecium [2] it was 2.5 µg/mL (≈ 1.71 µM); against Enterococcus faecalis [3], 80 µg/mL (≈ 54.7 µM); in the assay on Enterococcus faecalis [4], 640 µg/mL (≈ 437 µM); in the assay with Staphylococcus aureus, 2.5 µg/mL (≈ 1.71 µM).

For `CN[C@H](CC(C)C)C(=O)N[C@H]1C(=O)N[C@@H](CC(N)=O)C(=O)N[C@H]2C(=O)N[C@H]3C(=O)N[C@H](C(=O)N[C@H](C(=O)OC)c4cc(O)cc(O)c4-c4cc3ccc4O)[C@H](O)c3ccc(c(Cl)c3)Oc3cc2cc(c3O)Oc2ccc(cc2Cl)[C@H]1O`, the minimum inhibitory concentration (MIC) is 320 µg/mL (≈ 276 µM) against Enterococcus faecium [1]; 10 µg/mL (≈ 8.64 µM) against Enterococcus faecium [2]; 320 µg/mL (≈ 276 µM) against Enterococcus faecalis [3]; 640 µg/mL (≈ 553 µM) in the assay with Enterococcus faecalis [4]; 5 µg/mL (≈ 4.32 µM) against Staphylococcus aureus.

Turning to `CN[C@H](CC(C)C)C(=O)N[C@H]1C(=O)N[C@@H](CC#N)C(=O)N[C@H]2C(=O)N[C@H]3C(=O)N[C@H](C(=O)N[C@H](C(=O)OC)c4cc(O)cc(O)c4-c4cc3ccc4O)[C@H](O)c3ccc(c(Cl)c3)Oc3cc2cc(c3O)Oc2ccc(cc2Cl)[C@H]1O`, the MIC with Enterococcus faecium [1] turned out to be 320 µg/mL (≈ 281 µM); against Enterococcus faecium [2] it was 5 µg/mL (≈ 4.39 µM); against Enterococcus faecalis [3] it was 320 µg/mL (≈ 281 µM); in the assay on Enterococcus faecalis [4] it was 320 µg/mL (≈ 281 µM); against Staphylococcus aureus, 1.25 µg/mL (≈ 1.1 µM).
